Test system: CCl4-induced liver damage
Assay: effect on CCl4-induced liver damage in rats (serum transaminase s-GOT and s-GPT)
Type: in vivo, Male wistar rats
Details: for serum transaminase s-GPT / serum transaminase s-GOT / s-GPT (inhibitory %) / s-GOT (inhibitory %): 300 mg/Kg orally, 60 min before CCl4 0.25 ml/Kg i.p., 24 h after CCl4; for serum transaminase s-GPT / serum transaminase s-GOT: mean ± standard deviation; for effect on liver damage: result in words
Source text: Generally, the effect of a certain compound on liver damage is examined by administering it to experimental animals before a liver damage inducer such as carbon tetrachloride, thioacetamide, bromobenzene, paracetamol, D-galactosamine, etc. Carbon tetrachloride (CCl4)-induced liver damage is commonly used as the model. The mechanism to induce liver damage is presumed as follows (Biochemical Pharmacology 21, 49 (1972), ibid., 25, 2163 (1976)). In this invention, the effect of the compounds were examined against CCl4 -induced liver damage using serum transaminase activities (s-GOT and s-GPT) as a parameter. Male wistar rats (6 animals per group), weighing about 170-200 g, fasted for 17 hours, were used in the experiments. Test compounds were given orally at a dose of 300 mg/Kg, and 60 minutes later CCl4 was administered intraperitoneally at a dose of 0.25 ml/Kg (5 ml/Kg as a 5%(v/v)solution in olive oil). As the control, olive oil only was given intraperitoneally at a dose of 5 ml/Kg. All animals were killed 24 hours after CCl4 administration and their s-GOT and s-GPT activities were determined.

[1] = Table I, vs control 11460 ± 1490
[2] = Table II, vs control 6400 ± 2590
[3] = Table II, vs control 13950 ± 4030

| SMILES | serum transaminase s-GPT (Table I, control 5100 ± 405) [Karmen unit/ml] | serum transaminase s-GOT (Table I, control 11460 ± 1490) [Karmen unit/ml] | s-GPT (inhibitory %) (Table I, vs control 5100 ± 405) [%] | s-GOT (inhibitory %) [1] [%] | effect on liver damage | serum transaminase s-GPT (Table II, control 6400 ± 2590) [Karmen unit/ml] | serum transaminase s-GOT (Table II, control 13950 ± 4030) [Karmen unit/ml] | s-GPT (inhibitory %) [2] [%] | s-GOT (inhibitory %) [3] [%] |
| --- | --- | --- | --- | --- | --- | --- | --- | --- | --- |
| CC(=O)SCCNC(=O)CCNC(=O)OCc1ccccc1 [compound No. 1, N-(2-Acetylthioethyl)-3-(benzyloxycarbonylamino)propionamide] | 2590 ± 731 | 5250 ± 1330 | 49 | 54 |  |  |  |  |  |
| NCCC(=O)NCCS [β-aletheine, N-β-Alanyl-2-mercaptoethylamine] |  |  |  |  | excellent suppressive effect on liver damage |  |  |  |  |
| O=C(CCNC(=O)c1ccccc1)NCCSC(=O)c1ccccc1 [compound No. 3, 3-Benzoylamino-N-(2-benzoylthioethyl)propionamide] | 2440 ± 960 | 6150 ± 2990 | 52 | 46 |  |  |  |  |  |
| O=C(CCNC(=O)OCc1ccccc1)NCCS [compound No. 5, 3-(benzyloxycarbonylamino)-N-(2-mercaptoethyl)propionamide] |  |  |  |  | superior effect on liver-damage | 1900 ± 1640 | 4450 ± 4430 | 71 | 69 |
| CCC(=O)SCCNC(=O)CCNC(=O)OCc1ccccc1 [compound No. 2, 3-(Benzyloxycarbonylamino)-N-(2-propionylthioethyl)-propionamide] | 1720 ± 613 | 3550 ± 1150 | 66 | 69 |  |  |  |  |  |
| CC(=O)NCCC(=O)NCCSC(C)=O [compound No. 6, 3acetylamino-N--(2acetylthioethyl)propionamide] |  |  |  |  | superior effect on liver-damage | 1730 ± 800 | 3370 ± 1360 | 73 | 76 |
| Cl.NCCC(=O)NCCS [compound No. 4, 3-amino-N-(2-mercaptoethyl)propionamide hydrochloride] |  |  |  |  |  | 1990 ± 1010 | 4690 ± 2490 | 69 | 67 |

— US4552765A, “Aletheine derivatives” (Santen Pharmaceutical Co., Ltd., priority 1982, dated 1985)
